Source: patent publication US8329707B2, “Substituted pyrazine compounds” (Astellas Pharma Inc., priority 2008, dated 2012)
Where a name gives a salt, the structure may show the parent alone.

Tests used:
[1] = system: ICR mouse; assay: Oral glucose tolerance test in normal mouse; format: in vivo; settings: ICR mouse fasted overnight; 10 mg/kg oral, glucose loading after 30 minutes; AUC lowering rate of blood glucose up to 2 hours after glucose loading vs solvent control
Method: (§1) The test compound was dissolved in a solvent (5% Cremophor, aqueous 5% DMSO solution), and to an ICR mouse after fasting overnight was orally administered 10 mg/kg of the test compound, and after 30 minutes, oral glucose loading was carried out. Immediately before the administration of the test compound, immediately before the glucose loading, and 0.25, 0.5, 1, and 2 hours after the glucose loading, blood was collected and blood glucose levels were measured. An AUC lowering rate (%) of the blood glucose levels from immediately before the glucose loading to 2 hours after the glucose loading with respect to that of the solvent control group was calculated.

[2] = system: SD rat; assay: Oral glucose tolerance test in normal rat; format: in vivo; settings: SD rat fasted overnight; 1 mg/kg oral, glucose loading after 30 minutes; AUC lowering rate of blood glucose up to 2 hours vs solvent control
Method: as §1, with “SD rat” for “ICR mouse”, “1” for “10”, “and” for “and 0.25,”, “control” for “control group”

[3] = molecular target: T1, recombinant human hepatic type GK (GST-hGK2) (Homo sapiens, UniProt P35557); assay: Measurement of glucokinase (GK) activation; format: biochemical; settings: 10 min; test compound final concentration 10 μM; 5 mM glucose; 27° C.; increase of absorbance at 340 nm during first 10 minutes vs DMSO; read-out: GK activation (%)
T1 construct: made in house; host or cells: Escherichia coli BL21
T1 sequence (P35557 1-466 isoform P35557-2): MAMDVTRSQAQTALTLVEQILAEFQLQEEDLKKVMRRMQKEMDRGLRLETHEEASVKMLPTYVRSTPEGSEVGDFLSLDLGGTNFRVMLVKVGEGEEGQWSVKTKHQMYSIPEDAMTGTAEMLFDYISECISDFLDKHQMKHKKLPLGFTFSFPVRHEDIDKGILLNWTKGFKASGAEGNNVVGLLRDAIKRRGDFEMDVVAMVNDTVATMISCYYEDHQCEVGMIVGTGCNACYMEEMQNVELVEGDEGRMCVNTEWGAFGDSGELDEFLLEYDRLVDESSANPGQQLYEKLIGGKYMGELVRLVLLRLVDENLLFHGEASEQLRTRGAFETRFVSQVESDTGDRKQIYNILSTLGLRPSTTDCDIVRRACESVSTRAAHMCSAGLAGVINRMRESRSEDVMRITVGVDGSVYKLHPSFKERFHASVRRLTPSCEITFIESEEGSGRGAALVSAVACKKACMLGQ
Method: The present test was carried out in accordance with the method described in Science 301: 370-373, 2003 and with partial modification thereof. Hereinafter, the summary is described.
First, the cloning of GK (GenBank No. AK122876) was carried out. 5′-[…]-3′(SEQ ID NO: 1) and 5′-[…]-3′(SEQ ID NO: 2) were used as primers, and pME18S-FL3-Glucokinase isoform 2 was used as a template to carry out PCR. The obtained reaction product was TA-cloned into a pGEM-T easy vector, digested with EcoRI and XhoI, and introduced to the pGEX-5X-1 vector digested in the same manner by ligation. By using this plasmid DNA (pGEX-human Glucokinase 2), a recombinant human hepatic type GK (GST-hGK2) fused with GST (Glutathione S-transferase) was expressed in Escherichia coli (BL21 strain) and purified by Glutathione Sepharose.
The reaction of GK was carried out at 27° C. on a 96-well plate. First, 1 μL of the test compound (final concentration 10 μM) that has been diluted with dimethylsulfoxide (DMSO) was added to 89 μL of an enzyme mixed liquid (all final concentration 25 mM HEPES pH 7.4, 25 mM KCl, 2 mM MgCl2, 1 mM ATP, 0.1% BSA, 1 mM DTT, 1 mM NADP (nicotinamide adenine dinucleotide phosphate), 2.5 U/ml glucose-6-phosphate dehydrogenase, GST-hGK2 adjusted to ΔODCont of about 0.05 to 0.10). Subsequently, 10 μL of a substrate solution (final concentration 5 mM glucose) was added to start the reaction. In order to quantify a final product NADPH, an absorbance at a wavelength of 340 nm was measured, and the GK activation (%) of the test compound was calculated from the increase of absorbance during the first 10 minutes (ΔOD) after initiation of the reaction. GK activation (%)=[(ΔODTest)−(ΔODCont)]/(ΔODCont)×100
ΔODTest: ΔOD at test compound

[4] = system: C57BL/6 mice after loading a high fat diet; assay: Oral glucose tolerance test in mouse fed high fat diet; format: in vivo; settings: high fat diet about 30 days, fasted overnight, 1 mg/kg oral, glucose loading after 30 minutes, AUC lowering rate of blood glucose up to 2 hours vs solvent control
Method: The test compound was dissolved in a solvent (5% Cremophor, aqueous 5% DMSO solution), and to a C57BL/6 mice after loading a high fat diet for about 30 days and then fasting overnight was orally administered 1 mg/kg of the test compound, and after 30 minutes, oral glucose loading was carried out. Immediately before the administration of the test compound, immediately before the glucose loading, and 0.25, 0.5, 1, and 2 hours after the glucose loading, blood was collected and blood glucose levels were measured. An AUC lowering rate (%) of the blood glucose levels from immediately before the glucose loading to 2 hours after the glucose loading with respect to that of the solvent control was calculated.

Row | SMILES | inhibition in vivo at 10 mg/kg [1] [%] | Blood glucose lowering rate (%) [2] [%] | activation at 10 µM [3] [%] | Blood glucose lowering rate (%) [4] [%]
1 | Cn1ccc(NC(=O)/C(=C/[C@H]2CC[C@H](O)C2)c2ccc(S(=O)(=O)C3CC3)c(C3CC3)c2)n1 [Example 22-1, 2(E)-[3-cyclopropyl-4-(cyclopropylsulfonyl)phenyl]-3-[(1S,3S)-3-hydroxycyclopentyl]-N-(1-methyl-1H-pyrazol-3-yl)acrylamide] | 55 | 27 | 197 | 
2 | Cn1ccc(NC(=O)/C(=C/[C@H]2CCC(=O)C2)c2ccc(S(=O)(=O)C3CC3)c(C3CC3)c2)n1 [Example 4-1, (2E)-2-[3-cyclopropyl-4-(cyclopropylsulfonyl)phenyl]-N-(1-methyl-1H-pyrazol-3-yl)-3-[(1S)-3-oxocyclopentyl]acrylamide] | 39 | 25 | 355 | 32
3 | Cn1ccc(NC(=O)/C(=C/[C@H]2CC[C@@H](O)C2)c2ccc(S(=O)(=O)C3CC3)c(C3CC3)c2)n1 [Example 22-2, 2(E)-[3-cyclopropyl-4-(cyclopropylsulfonyl)phenyl]-3-[(1S,3R)-3-hydroxycyclopentyl]-N-(1-methyl-1H-pyrazol-3-yl)acrylamide] | 52 | 25 | 199 | 
4 | Cc1cnc(NC(=O)/C(=C/[C@H]2CCC(=O)C2)c2ccc(S(=O)(=O)C3CC3)c(C3CC3)c2)cn1 [Example 36] | 45 | 40 | 332 | 43
5 | CC(C)(O)COc1cnc(NC(=O)[C@H](C[C@H]2CCC(=O)C2)c2ccc(S(=O)(=O)C3CC3)c(C3CC3)c2)cn1 [Example 10, (2R)-2-[3-cyclopropyl-4-(cyclopropylsulfonyl)phenyl]-N-[5-(2-hydroxy-2-methylpropoxy)pyrazin-2-yl]-3-[(1R)-3-oxocyclopentyl]propanamide] | 51 |  | 357 | 
6 | O=C1CC[C@H](C[C@@H](C(=O)Nc2cnc(CO)cn2)c2ccc(S(=O)(=O)C3CC3)c(C3CC3)c2)C1 [Example 15, (2R)-2-[3-cyclopropyl-4-(cyclopropylsulfonyl)phenyl]-N-[5-(hydroxymethyl)pyrazin-2-yl]-3-[(1R)-3-oxocyclopentyl]propanamide] | 49 | 22 | 284 | 
7 | CC(O)c1cnc(NC(=O)[C@H](C[C@H]2CCC(=O)C2)c2ccc(S(=O)(=O)C3CC3)c(C3CC3)c2)cn1 (some centres unmarked) [Example 83] | 51 | 17 | 345 | 
8 | O=C1CC[C@H](C[C@@H](C(=O)Nc2cnc(Cl)cn2)c2ccc(S(=O)(=O)C3CC3)c(C3CC3)c2)C1 [Example 70] | 60 |  | 282 | 
9 | O=C1CC[C@H](C[C@@H](C(=O)Nc2cnc(OCCO)cn2)c2ccc(S(=O)(=O)C3CC3)c(C3CC3)c2)C1 [Example 11, (2R)-2-[3-cyclopropyl-4-(cyclopropylsulfonyl)phenyl]-N-[5-(2-hydroxyethoxy)pyrazin-2-yl]-3-[(1R)-3-oxocyclopentyl]propanamide] | 50 | 20 | 433 | 
10 | Cc1ccc(NC(=O)[C@H](C[C@H]2CCC(=O)C2)c2ccc(S(=O)(=O)C3CC3)c(C3CC3)c2)nc1 [Example 9, (2R)-2-[3-cyclopropyl-4-(cyclopropylsulfonyl)phenyl]-N-(5-methylpyridin-2-yl)-3-[(1R)-3-oxocyclopentyl]propanamide monohydrochloride] | 52 |  | 333 | 
